Assay results from ChEMBL document CHEMBL1201862, “PubChem BioAssay data set” (2004).
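Cells were grown in 96-well plates and exposed to each compound for 48 hours at five concentrations; endpoints were interpolated linearly between bracketing concentrations, or set to the highest concentration if not reached. GI50 marks 50% less growth.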 Active and inactive are the calls of the source. Cut-off read from the data, not from the text of the source: active = GI50 up to about 1.1 µM and inactive = higher.

How the values were obtained:
Test in all cases: NCI tumour cell line growth inhibition, 48 h
HOP-18 = system: HOP-18
LXFL 529 = system: LXFL 529
SNB-78 = system: SNB-78
M19-MEL = system: M19-MEL
DMS-273 = system: DMS-273
XF498 = system: XF498
DLD-1 = system: DLD-1
RXF 631 = system: RXF 631
BT-549 = system: BT-549

Measured: GI50

CN1CCc2c1nc(-c1cccnc1)c1c2N(C)CC1
inactive: HOP-18 60.4 µM | LXFL 529 > 100 µM | SNB-78 > 100 µM | M19-MEL > 100 µM | DMS-273 > 100 µM | XF498 > 100 µM | DLD-1 > 100 µM | RXF 631 > 100 µM

CC1=C(C(=O)NNS(=O)(=O)c2ccc(C)cc2)CC(C(=O)NNS(=O)(=O)c2ccc(C)cc2)=C(C)N1
inactive: HOP-18 27.1 µM | LXFL 529 52.1 µM | SNB-78 > 100 µM | M19-MEL 98.9 µM | XF498 > 100 µM | DLD-1 > 100 µM | RXF 631 > 100 µM

Cc1ccc(NC(=O)C(=O)C2C(=O)N(c3ccccc3)N=C2N)cc1C (stereo not drawn)
inactive: HOP-18 > 100 µM | LXFL 529 > 100 µM | SNB-78 > 100 µM | M19-MEL > 100 µM | DMS-273 > 100 µM | XF498 > 100 µM | DLD-1 > 100 µM | RXF 631 > 100 µM

O=C(Nc1nc2c(ncn2C2OC(CO)C(O)C2O)c(=O)[nH]1)c1ccccc1 (stereo not drawn)
inactive: HOP-18 > 100 µM | LXFL 529 > 100 µM | SNB-78 > 100 µM | M19-MEL > 100 µM | DMS-273 > 100 µM | XF498 > 100 µM | DLD-1 > 100 µM | RXF 631 > 100 µM

Cc1ccccc1NC(=O)CC(=O)NNCC(=O)Nc1nnc(-c2ccccc2)s1
inactive: HOP-18 29 µM | LXFL 529 39.2 µM | SNB-78 > 100 µM | M19-MEL > 100 µM | DMS-273 73.6 µM | XF498 31.9 µM | DLD-1 98.9 µM | RXF 631 > 100 µM

O=c1c(Cc2ccccc2)c(O)cc2n1CCC2
inactive: HOP-18 > 100 µM | LXFL 529 > 100 µM | SNB-78 > 100 µM | M19-MEL > 100 µM | XF498 > 100 µM | DLD-1 > 100 µM | RXF 631 > 100 µM

Cc1ccc2nc3c(C)c(Cl)c(=O)cc-3sc2c1
inactive: HOP-18 19.7 µM | LXFL 529 4.94 µM | BT-549 20.9 µM | SNB-78 32.2 µM | M19-MEL 4.68 µM | DMS-273 22.4 µM | XF498 10 µM | DLD-1 19.2 µM | RXF 631 24.3 µM

O=C/C(=C(/Cl)c1ccc(O)cc1)c1ccccc1
inactive: HOP-18 20.2 µM | LXFL 529 25.4 µM | SNB-78 32.7 µM | M19-MEL 19.7 µM | DMS-273 18.8 µM | XF498 18.9 µM | DLD-1 23.5 µM | RXF 631 24.8 µM
